In patent US7365080B2, “Pharmaceutical compositions comprising thieno[2,3-c]pyridine derivatives and use thereof” (Rimonyx Pharmaceuticals Ltd., priority 2003, dated 2008):

The compounds below were run against T1, L-Selectin (Homo sapiens, UniProt P14151) (assay: ELISA: inhibition of L-selectin/IgG binding to immobilized heparin (Heparin-BSA)). Settings: L-Selectin binding to heparin.
T1 construct: purchased Research and Development Systems 728-LS
T1 sequence (P14151 39-332 limits assumed): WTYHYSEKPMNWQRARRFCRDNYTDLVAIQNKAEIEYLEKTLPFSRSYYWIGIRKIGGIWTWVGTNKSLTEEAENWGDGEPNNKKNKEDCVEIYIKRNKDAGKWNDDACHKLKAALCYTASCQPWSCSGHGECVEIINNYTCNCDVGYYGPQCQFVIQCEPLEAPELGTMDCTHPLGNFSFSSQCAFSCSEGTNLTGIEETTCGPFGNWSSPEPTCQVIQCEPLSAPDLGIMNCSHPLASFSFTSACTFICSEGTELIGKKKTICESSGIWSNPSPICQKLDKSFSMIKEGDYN
Method: The inhibitory effect of the compounds of the present invention can be evaluated by several methods in vitro. One assay for measuring GAG-ECAM binding, exemplified herein below, detects the binding of L selectin/IgG to immobilized heparin. Another assay utilizes immobilized L-selectin, or L-selectin fused to protein domains other than IgG. The amount of bound L-selectin is determined by an ELISA assay using, for example, a monoclonal antibody raised against L-selectin, which is conjugated to horseradish peroxidase. […] The Dregg-55 antibody was also shown to inhibit L-selectin-dependent adhesion in vitro, neutrophil accumulation in vitro and inflammation in vivo (Co M. S. et al, Immunotechnology 493: 253-266, 1999).
An in vitro assay was used to assess the ability of test compounds according to formula I to inhibit the interactions of L-selectin with HS-GAGs. The assay was suitable for determining the concentration required for 50% inhibition (IC-50) for each specific compound. In the assay, the GAG used was heparin. Thus, porcine intestinal mucosa heparin conjugated to Bovine Serum Albumin (Heparin-BSA; Sigma Cat. No. H0403) at […] in Phosphate Buffered Saline (PBS; pH 6.5) was added to a 96 well polystyrene ELISA plate (NUNC Cat. No. 442404; 0.1 ml per well) and incubated Over Night (ON) at 4° C. Following the incubation, the plate was washed thoroughly, by immersion, with de-ionized water and PBS (pH 6.5). The ELISA plate was then blocked with BSA (ICN Cat. No.160069, 3%, 200 μl per well) for 1 hour at Room Temperature (RT). Following blocking, the plate was washed with de-ionized water, and then with PBS (pH 6.5) containing Tween 20 (Sigma Cat. No. P-1379, 0.05%). Compounds were synthesized or purchased from ChemDiv Labs (San Diego, Calif.), dissolved in DMSO, diluted in PBS and added to the wells at various concentrations in the range of 0.01 to 300 μM. Recombinant Human L-Selectin/IgG (Research and Development Systems Cat. No.728-LS) dissolved in PBS supplemented with BSA (0.1%) and calcium chloride (1 mM) was added to the ELISA plate (100 μl per well) and incubated for 60 minutes at RT with shaking. Following incubation, the plate was washed with de-ionized water and three times with PBS (pH 6.5) containing Tween 20. Anti-Human IgG Peroxidase Conjugate (1:5000; Sigma Product No. A8667) diluted in PBS supplemented with BSA (0.1%) and calcium chloride (1 mM) was added to the ELISA plate (100 μl per well) and incubated for 30 minutes at RT with shaking. The plate was then washed with de-ionized water and three times with PBS (pH 6.5) containing Tween 20. The peroxidase substrate cromogen, TMB (Dako Cat. No. S1599) was added (100 μl per well) to the ELISA plate and incubated at room temperature. After 15 minutes ELISA Stop Solution (hydrochloric acid 1N, sulfuric acid 3N) was added (200 μl per well) to stop the peroxidase catalyzed colorimetric reaction. The Optical Density (OD) of the samples was measured at 450 nm using an ELISA plate reader (Dynatech MR5000). Data were analyzed with Graphpad Prism software and IC-50 values were established. The P-selectin assay was carried out in a similar fashion, except that Recombinant Human P-Selectin/IgG (Research and Development Systems Cat.No.137-PS) was used.

| IC50 | SMILES |
| --- | --- |
| 10 µM | CCN(CC)S(=O)(=O)c1ccc(C(=O)Nc2sc3c(c2-c2nc4ccccc4s2)CCN(C(C)C)C3)cc1 [Compound 3] |
| 25 µM | CC(C)N1CCc2c(sc(NC(=O)c3ccc(S(=O)(=O)N4CCOCC4)cc3)c2-c2nc3ccccc3s2)C1 [Compound 10] |

More lines, now with the values behind:

| SMILES | IC50 |
| --- | --- |
| CCOC(=O)c1c(NC(=O)c2ccc(S(=O)(=O)N3CCCc4ccccc43)cc2)sc2c1CCN(C(C)C)C2 [Compound 16] | 11 µM |
| CCOC(=O)c1c(NC(=O)c2ccc(S(=O)(=O)N3CCCCCC3)cc2)sc2c1CC(C)(C)NC2(C)C [Compound 18] | 11 µM |
| C=CCN(CC=C)S(=O)(=O)c1ccc(C(=O)Nc2sc3c(c2C(=O)OC)CC(C)(C)NC3(C)C)cc1 [Compound 19] | 43 µM |
| CCOC(=O)c1c(NC(=O)c2ccc(S(=O)(=O)N(CC)CC)cc2)sc2c1CC(C)(C)NC2(C)C [Compound 20] | 26 µM |
| CN(C1CCCCC1)S(=O)(=O)c1ccc(C(=O)Nc2sc3c(c2C(N)=O)CC(C)(C)NC3(C)C)cc1 [Compound 21] | 36 µM |
| CC1(C)Cc2c(sc(NC(=O)c3ccc(S(=O)(=O)N4CCCc5ccccc54)cc3)c2C(N)=O)C(C)(C)N1 [Compound 25] | 12 µM |
| CCN1CCc2c(sc(NC(=O)c3ccc(S(=O)(=O)N(C)c4ccccc4)cc3)c2C(=O)NC)C1 [Compound 27] | 9 µM |

Same assay, conditions: L-Selectin binding to heparin; 50 μM

| inhibition at 50 µM | SMILES |
| --- | --- |
| 60% | CCN(CC)S(=O)(=O)c1ccc(C(=O)Nc2sc3c(c2-c2nc4ccccc4s2)CCN(C)C3)cc1 [Compound 2] |
| 43% | COCCN(CCOC)S(=O)(=O)c1ccc(C(=O)Nc2sc3c(c2-c2nc4ccccc4s2)CCN(C)C3)cc1 [Compound 4] |
| 44% | CN1CCc2c(sc(NC(=O)c3ccc(S(=O)(=O)N(C)c4ccccc4)cc3)c2-c2nc3ccccc3s2)C1 [Compound 6] |
| 46% | CCN1CCc2c(sc(NC(=O)c3ccc(S(=O)(=O)N4CCCCCC4)cc3)c2-c2nc3ccccc3s2)C1 [Compound 8] |
| 52% | CN1CCc2c(sc(NC(=O)c3ccc(S(=O)(=O)N4CCOCC4)cc3)c2-c2nc3ccccc3s2)C1 [Compound 9] |
| 21% | CCCN(CCC)S(=O)(=O)c1ccc(C(=O)Nc2sc3c(c2-c2nc4ccccc4s2)CCN(C)C3)cc1 [Compound 30] |
| 27% | CCCCN(CCCC)S(=O)(=O)c1ccc(C(=O)Nc2sc3c(c2-c2nc4ccccc4s2)CCN(C)C3)cc1 [Compound 31] |
| 26% | CCCCN(C)S(=O)(=O)c1ccc(C(=O)Nc2sc3c(c2-c2nc4ccccc4s2)CCN(C)C3)cc1 [Compound 32] |
| 21% | CCCCN(CC)S(=O)(=O)c1ccc(C(=O)Nc2sc3c(c2-c2nc4ccccc4s2)CCN(C)C3)cc1 [Compound 33] |
| 25% | C=CCN(CC=C)S(=O)(=O)c1ccc(C(=O)Nc2sc3c(c2-c2nc4ccccc4s2)CCN(C)C3)cc1 [Compound 34] |
| 24% | CN1CCc2c(sc(NC(=O)c3ccc(S(=O)(=O)N4CCCC4)cc3)c2-c2nc3ccccc3s2)C1 [Compound 35] |
| 26% | CN1CCc2c(sc(NC(=O)c3ccc(S(=O)(=O)N4CCCCC4)cc3)c2-c2nc3ccccc3s2)C1 [Compound 36] |
| 23% | CC1CCCN(S(=O)(=O)c2ccc(C(=O)Nc3sc4c(c3-c3nc5ccccc5s3)CCN(C)C4)cc2)C1 (stereo not shown) [Compound 37] |
| 33% | CC1CCN(S(=O)(=O)c2ccc(C(=O)Nc3sc4c(c3-c3nc5ccccc5s3)CCN(C)C4)cc2)CC1 [Compound 38] |
| 24% | CC1CC(C)CN(S(=O)(=O)c2ccc(C(=O)Nc3sc4c(c3-c3nc5ccccc5s3)CCN(C)C4)cc2)C1 (stereo not shown) [Compound 39] |
| 25% | CCCN(CCC)S(=O)(=O)c1ccc(C(=O)Nc2sc3c(c2-c2nc4ccccc4s2)CCN(CC)C3)cc1 [Compound 40] |
| 27% | CCCCN(CC)S(=O)(=O)c1ccc(C(=O)Nc2sc3c(c2-c2nc4ccccc4s2)CCN(C(C)C)C3)cc1 [Compound 42] |
| 29% | CC(C)N1CCc2c(sc(NC(=O)c3ccc(S(=O)(=O)N4CCCCC4)cc3)c2-c2nc3ccccc3s2)C1 [Compound 44] |
| 24% | CC(C)N1CCc2c(sc(NC(=O)c3ccc(S(=O)(=O)N4CCCCC4C)cc3)c2-c2nc3ccccc3s2)C1 (stereo not shown) [Compound 45] |

Further lines, the compound ahead of its results:

| SMILES | inhibition at 50 µM |
| --- | --- |
| CCCCN(CC)S(=O)(=O)c1ccc(C(=O)Nc2sc3c(c2C(N)=O)CCN(C(C)C)C3)cc1 [Compound 12] | 55% |
| CC(C)N1CCc2c(sc(NC(=O)c3ccc(S(=O)(=O)N(C)c4ccccc4)cc3)c2C(N)=O)C1 [Compound 13] | 68% |
| CC1CC(C)CN(S(=O)(=O)c2ccc(C(=O)Nc3sc4c(c3C(N)=O)CCN(C(C)C)C4)cc2)C1 (stereo not shown) [Compound 14] | 35% |
| CCCCN(C)S(=O)(=O)c1ccc(C(=O)Nc2sc3c(c2C(=O)OCC)CCN(C(C)C)C3)cc1 [Compound 15] | 40% |
| CCOC(=O)c1c(NC(=O)c2ccc(S(=O)(=O)N3CCN(C(=O)OCC)CC3)cc2)sc2c1CCN(C(C)C)C2 [Compound 17] | 21% |
| CCN(CC)S(=O)(=O)c1ccc(C(=O)Nc2sc3c(c2C(N)=O)CC(C)(C)NC3(C)C)cc1 [Compound 22] | 35% |
| CCCCN(C)S(=O)(=O)c1ccc(C(=O)Nc2sc3c(c2C(N)=O)CC(C)(C)NC3(C)C)cc1 [Compound 23] | 39% |
| CCOC(=O)N1CCN(S(=O)(=O)c2ccc(C(=O)Nc3sc4c(c3C(N)=O)CC(C)(C)NC4(C)C)cc2)CC1 [Compound 24] | 29% |
| COCCN(CCOC)S(=O)(=O)c1ccc(C(=O)Nc2sc3c(c2C(N)=O)CC(C)(C)NC3(C)C)cc1 [Compound 26] | 23% |
| CCN1CCc2c(sc(NC(=O)c3ccc(S(=O)(=O)N(CC)Cc4ccccc4)cc3)c2C(N)=O)C1 [Compound 28, 2-[[4-[[ethyl(phenylmethyl)amino]sulfonyl]benzoyl]amino]-6-ethyl-4,5,6,7-tetrahydrothieno[2,3-c]pyridine-3-carboxamide] | 63% |
| CCN1CCc2c(sc(NC(=O)c3ccc(S(=O)(=O)N4CCN(C)CC4)cc3)c2C(N)=O)C1 [Compound 29, 2-[[4-[(4-methyl-1-piperazinyl)sulfonyl]benzoyl]amino]-6-ethyl-4,5,6,7-tetrahydrothieno[2,3-c]pyridine-3-carboxamide] | 30% |
| C=CCN(CC=C)S(=O)(=O)c1ccc(C(=O)Nc2sc3c(c2-c2nc4ccccc4s2)CCN(CC)C3)cc1 [Compound 41] | 25% |
| C=CCN(CC=C)S(=O)(=O)c1ccc(C(=O)Nc2sc3c(c2-c2nc4ccccc4s2)CCN(C(C)C)C3)cc1 [Compound 43] | 17% |

These compounds were tested on Human T-lymphocytes on human endothelial cells (assay: T-lymphocyte rolling on endothelial cells under shear flow). Settings: Homo sapiens; 25 μM; high shear flow; read-out: inhibition of cell rolling.
Assay type: cell-based
Method: Human T-lymphocytes were passed over a layer of human endothelial cells according to the method of Lawrence and Springer (Cell 65: 859-873, 1991). At high shear flow, migrating T-lymphocytes adhered transiently and intermittently to the endothelial cells as a consequence of HS-GAG-ECAM interaction. The resulting T-cell rolling was recorded by video camera and the number of rolling cells per defined area during a constant period of time was determined. Soluble heparin (competitor of cell surface GAGs) abolished T-cell rolling under high shear flow conditions. Compounds no. 1, 11 and 25, each at 25 μM, inhibited cell rolling by 90, 90 and 70%, respectively.

| SMILES | inhibition at 25 µM |
| --- | --- |
| CC1(C)Cc2c(sc(NC(=O)c3ccc(S(=O)(=O)N4CCCc5ccccc54)cc3)c2C(N)=O)C(C)(C)N1 [Compound 25] | 70% |

Same assay, conditions: test compound (25 μM); shear flow

| SMILES | % rolling |
| --- | --- |
| CC1(C)Cc2c(sc(NC(=O)c3ccc(S(=O)(=O)N4CCCc5ccccc54)cc3)c2C(N)=O)C(C)(C)N1 [Compound 25] | <10% |
